Our source for the Kd, Activity and Stability values is ChEMBL document CHEMBL6083198, “Rational design of a high-affinity fluorescent probe for visualizing monitoring the amyloid β clearance effect of anti-Alzheimer's disease drug candidates” (Eur J Med Chem, 2024).

The target of series [1] is T1, Amyloid-beta precursor protein (Homo sapiens, UniProt P05067). The experiment in a line: Binding affinity to amyloid beta (unknown origin) assessed as dissociation constant.
The target in series [2] is T1, Amyloid-beta precursor protein. Kind of series: Inhibition of amyloid beta aggregation in amyloid beta-induced human SH-SY5Y cells assessed as reduction in fluorescence intensity at 2 to 20 uM incubated for 24 hrs by Western blot analysis. Type of series: cell-based. The note with it: dose 2-20 µM. A general note: A western blot detects proteins with antibodies after separation by electrophoresis.

Series [3] has as its system Caenorhabditis elegans. The experiment in a line: Anti-alzheimer activity against heat-induced Caenorhabditis elegans CL4176 AD paralysis model assessed as reduction in amyloid-beta deposition measured after 5 days by ThS staining based fluorescence assay. Type of series: functional, organism-based. The note with it: dose 100-200 µM, time 5.0 day.
Series [4] deals with SH-SY5Y. Kind of series: Neuroprotective activity against amyloid beta-induced toxicity in human SH-SY5Y cells assessed as reduction in fluorescence intensity at 10 uM incubated for 24 hrs by immunofluorescence staining based analysis. Type of series: functional, cell-based.
Series [5] relates to Caenorhabditis elegans. Kind of series: Anti-alzheimer activity against heat-induced Caenorhabditis elegans CL4176 AD paralysis model assessed as reduction in amyloid-beta deposition at 100 to 200 uM. Type of series: functional, organism-based. The note with it: dose 100-200 µM, time 5.0 day.
Series [6] has as its target T1, Amyloid-beta precursor protein. Kind of series: Binding affinity to amyloid beta plaques 1 to 42 (unknown origin) assessed as dissociation constant.
Series [7] has as its system SH-SY5Y. The experiment in a line: Neuroprotective activity against amyloid beta-induced toxicity in human SH-SY5Y cells assessed as reduction in fluorescence intensity at 2 uM incubated for 24 hrs by immunofluorescence staining based analysis. Type of series: functional, cell-based.
In series [8] the test system is Caenorhabditis elegans. The experiment in a line: Anti-alzheimer activity against heat-induced Caenorhabditis elegans CL2006 AD paralysis model assessed as reduction in amyloid-beta deposition at 200 uM measured after 5 days by ThS staining based fluorescence assay. The note with it: time 5.0 day. Type of series: functional, organism-based.
The nature of series [9]: Fluorescence property of compound in aqueous solution assessed as fluorescence quantum yield. The note with it: buffer. Type of series: physicochemical.
The species entered for series [10] is Mus musculus. The experiment in a line: Binding affinity to amyloid beta plaques in 12 month old male APP/PS1 transgenic mouse model assessed as signal to noise ratio in brain slice at 100 uM incubated for 30 min by confocal microscopic analysis. The note with it: time 12.0 months. Type of series: tissue-based.
The species entered for series [11] is Mus musculus. The experiment in a line: Binding affinity to amyloid beta plaques in 12 month old male APP/PS1mouse brain cerebral cortex by light-sheet microscopy. Type of series: tissue-based. The note with it: time 12.0 months.
Series [12] in a line: Fluorescence property of compound in DCM assessed as fluorescence quantum yield. Type of series: physicochemical.
The species entered for series [13] is Homo sapiens. The experiment in a line: Binding affinity to lysozyme (unknown origin) at 0.05 mg/ml by fluorescence analysis.
The species named for series [14] is Homo sapiens. Kind of series: Binding affinity to amyloid beta fibril (unknown origin) at 0.025 mg/ml by fluorescence analysis.
Series [15] deals with SH-SY5Y. The experiment in a line: Cytotoxicity against human SH-SY5Y cells at 100 uM incubated for 24 hrs. Type of series: toxicity, cell-based.
The target in series [16] is T1, Amyloid-beta precursor protein. Kind of series: Binding affinity to amyloid beta oligomers (unknown origin) at 5 uM by fluorescence analysis.
The species entered for series [17] is Homo sapiens. Kind of series: Binding affinity to pepsin (unknown origin) at 0.05 mg/ml by fluorescence analysis.
Series [18] can be described thus: Binding affinity to amyloid beta oligomer (unknown origin) assessed as dissociation constant. More on the design: species or system Homo sapiens.
In another series the target is Albumin (Bos taurus, UniProt P02769). Kind of series: Binding affinity to bovine serum albumin (unknown origin) at 0.05 mg/ml by fluorescence analysis. The note with it: cattle.
Sequence of Albumin (P02769 whole entry): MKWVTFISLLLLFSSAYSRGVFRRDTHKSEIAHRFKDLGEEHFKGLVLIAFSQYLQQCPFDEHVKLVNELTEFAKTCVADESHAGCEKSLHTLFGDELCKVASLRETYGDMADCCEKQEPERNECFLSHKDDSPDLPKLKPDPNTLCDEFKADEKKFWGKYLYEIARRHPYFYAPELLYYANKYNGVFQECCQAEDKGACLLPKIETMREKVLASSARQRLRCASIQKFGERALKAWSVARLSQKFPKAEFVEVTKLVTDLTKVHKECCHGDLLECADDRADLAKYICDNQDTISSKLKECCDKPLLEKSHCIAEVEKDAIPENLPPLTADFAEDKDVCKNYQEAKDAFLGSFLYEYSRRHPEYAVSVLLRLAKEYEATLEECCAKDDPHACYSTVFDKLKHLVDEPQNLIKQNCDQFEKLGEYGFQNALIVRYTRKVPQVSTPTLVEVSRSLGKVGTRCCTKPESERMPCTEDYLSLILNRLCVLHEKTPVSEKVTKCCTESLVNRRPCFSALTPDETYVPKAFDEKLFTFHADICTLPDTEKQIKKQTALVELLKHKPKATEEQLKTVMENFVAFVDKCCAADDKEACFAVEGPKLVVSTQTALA
Series [19] in a line: (§1) Binding affinity to amyloid beta fibril (unknown origin) assessed as dissociation constant. Further details: species or system Homo sapiens.
Series [20] is filed under the species Homo sapiens. Described as §1.
For series [21], the species on record is Homo sapiens. The experiment in a line: Binding affinity to phosphoesterase (unknown origin) at 0.05 mg/ml by fluorescence analysis.
A further series has as its system U-87 MG. The experiment in a line: Cytotoxicity against human U-87 MG cells at 100 uM incubated for 24 hrs. Type of series: toxicity, cell-based. The note with it: u-87mg atcc.
The species entered for series [22] is Mus musculus. Kind of series: Binding affinity to amyloid beta plaques in 12 month old male APP/PS1 transgenic mouse model assessed as colocalization of amyloid beta plaques in brain at 100 uM incubated for 30 min by ab205240 staining based immunohistofluorescence assay. Type of series: tissue-based. The note with it: time 12.0 months.
The species named for series [23] is Homo sapiens. Kind of series: Binding affinity to amyloid beta monomer (unknown origin) assessed as dissociation constant.
Another series deals with Trypsin (Homo sapiens) (UniProt P07477+P07478+P35030). The experiment in a line: Binding affinity to trypsin (unknown origin) at 0.05 mg/ml by fluorescence analysis. Type of series: protein assay.
A short description of series [24]: Photostability of compound under continuous light irradiation. Type of series: physicochemical.
Series [25] is described as follows: Stability of compound at pH 2 to 10 in presence of Amyloid beta. The note with it: buffer. Type of series: physicochemical.
Series [26] in a line: Binding affinity to cellulase (unknown origin) at 0.05 mg/ml by fluorescence analysis.

pKd: −log10 of the molar value. Active and inactive are the calls of the source. The rule behind the calls is not given here.

For orientation: pKd means the negative decadic logarithm of the Kd, by convention in mol/L.

T1 sequence (P05067 whole entry): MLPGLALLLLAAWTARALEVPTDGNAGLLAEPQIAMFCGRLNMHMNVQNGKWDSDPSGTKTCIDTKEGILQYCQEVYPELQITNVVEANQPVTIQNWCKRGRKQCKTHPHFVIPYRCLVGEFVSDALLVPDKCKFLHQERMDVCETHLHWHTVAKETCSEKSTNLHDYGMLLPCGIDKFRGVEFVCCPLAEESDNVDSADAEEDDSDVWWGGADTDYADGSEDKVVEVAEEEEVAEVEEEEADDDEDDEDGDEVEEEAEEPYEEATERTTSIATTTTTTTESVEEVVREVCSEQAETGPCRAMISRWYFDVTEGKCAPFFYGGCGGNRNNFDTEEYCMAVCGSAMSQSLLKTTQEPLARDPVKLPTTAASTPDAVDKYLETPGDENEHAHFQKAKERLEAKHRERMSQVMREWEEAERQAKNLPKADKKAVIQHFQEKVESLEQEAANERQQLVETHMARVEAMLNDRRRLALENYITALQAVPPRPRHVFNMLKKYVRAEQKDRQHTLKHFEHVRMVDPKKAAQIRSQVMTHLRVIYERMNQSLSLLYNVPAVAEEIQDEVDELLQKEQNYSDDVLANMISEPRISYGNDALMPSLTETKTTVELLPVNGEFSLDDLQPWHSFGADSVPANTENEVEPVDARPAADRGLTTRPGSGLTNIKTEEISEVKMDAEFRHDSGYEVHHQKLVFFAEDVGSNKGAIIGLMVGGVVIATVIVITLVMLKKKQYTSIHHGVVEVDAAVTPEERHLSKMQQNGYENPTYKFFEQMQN

Take `CN(C)c1ccc(/C=C/C=C/C=C(C#N)C#N)s1`: the pKd in series [1] is 6.93.
The same measure, in the same setting: the same measure for `CN(C)c1ccc(-c2ccc(/C=C/C3CC(=C(C#N)C#N)c4ccccc4N3CCCS(=O)(=O)O)s2)cc1` (configuration not stated): 6.77.
Regarding `CN(C)c1ccc2cc3c(cc2c1)OCC(C=C(C#N)C#N)=C3`, the pKd in [1] is 7.35.
With `CC(=O)Oc1ccccc1C(=O)Nc1ncc([N+](=O)[O-])s1`, the outcome (in series [2]; in the series with SH-SY5Y [4]; in the series with Caenorhabditis elegans [5]) was Active. In the series with Caenorhabditis elegans [3], the Activity result is “Dose-dependent-effect”.
As to `CCN(CC)c1ccc(/C=C/C2=[O+][B-](F)(F)OC(/C=C/c3ccc(N(CC)CC)nc3)=C2CCCOc2c(C)cccc2C)cc1`, the negative-log Kd (pKd) in series [6] was 6.30.
In the case of `COCCOCCOC(=O)CCN1C(=O)/C(=C/c2ccc3c(c2)Sc2ccccc2N3C)SC1=S`, in series [1], the pKd is 7.55.
As to `CC(=O)Oc1cccc(C(=O)Nc2ncc(N3CCOCC3)s2)c1`, the result (in series [2]; with SH-SY5Y [7]; in the series on Caenorhabditis elegans [5]) was Active. Also, the Activity result in the series on Caenorhabditis elegans [3] was “Dose-dependent-effect”. Further, the result in the series on Caenorhabditis elegans [8] was inactive.
For the molecule `COCCOCCn1c2ccccc2c2cc(CCc3cc[n+](C)c4ccccc34)ccc21`, the negative logarithm of the Kd (pKd) in series [1] was 7.88.
Take `O=c1c(O)c(-c2ccc(O)c(O)c2)oc2cc(O)cc(O)c12`: the Activity result with Caenorhabditis elegans [3] is “Dose-dependent-effect”.
In the case of `CCCN1/C(=C/C=C2\CCCC(C=C(C#N)C#N)=C2Cl)C(C)(C)c2ccccc21`, the pKd in series [6] is 7.23.
Same read-out and setting: the same measure for `CN(C)c1ccc(/C=C/C=C(C#N)/C=C/C(C#N)=C/C=C/C=C/c2ccc(N(C)C)cc2)cc1`: 8.98.
As to `CN(C)c1ccc2cc(/C=C/c3ccc4ccccc4[n+]3C)c(=O)oc2c1`, the pKd in [1] was 7.07.
Take `Cc1cc(/C=C/c2ccc(N(C)C)s2)n2c1C(CCCN1CCNc3ccccc31)=C1C=CC=[N+]1[B-]2(F)F`: the pKd in series [6] was 7.57.
`CN(C)c1ccc(-c2ccc3cc(C#N)c(=N)oc3c2)cc1`: the Activity in [9] came to 0.027. Besides, in [1], the pKd is 6.26.
Take `CN(C)c1ccc(/C=C/c2ccc3cc(C#N)c(=O)oc3c2)cc1`: the result (in the series filed under Mus musculus [10]; in the series listed under Mus musculus [11]; in the series listed under Homo sapiens [14]; in series [16]; in the series listed under Homo sapiens [20]; in the series listed under Mus musculus [22]) was Active. Also, the Activity was 0.3 in [12], “Non-toxic” in the series on SH-SY5Y [15], “Not_active” on Albumin and “Non-toxic” in the series on U-87 MG. For the same molecule, the outcome (in the series listed under Homo sapiens [13]; in the series filed under Homo sapiens [17]; in the series filed under Homo sapiens [21]; in the series filed under Homo sapiens [23]; at Trypsin (Homo sapiens); in series [26]) was inactive. Besides, the pKd was 7.09 in [18] and 7.18 in series [19]. Also, the Stability entry in series [24] and in [25] was “Stable” in each case.
